SMILES strings stand for the structures.

A short description of the data set: gradient 5% acetonitrile 3 min, to 50% in 2 min, to 85% in 15 min, held 3 min, 100 µL/min. Particulars: column: Zorbax Extend-C18 2.1 x 50 mm; eluents: water / acetonitrile, 0.1% formic acid. In short, it runs like this: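 Pure standards were analyzed in mixtures of ~100 molecules using HPLC coupled to a quadrupole time-of-flight mass spectrometer, in both positive and negative ionization mode. Separation used a Zorbax Extend-C18 column (2.1 × 50 mm, 1.8 μm) at 100 μL/min, with water and acetonitrile each containing 0.1% formic acid. Dead and dwell volumes were 40 μL and 900 μL, and data were collected over 3 months. Retention time was read from computationally picked adduct peaks, each inspected manually.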
In the case of `CCN(CC)c1nc2cc(C(=O)OC)ccc2c(=O)n1Cc1ccc(F)cc1`, the RP-LC retention time stood at 1180 s.

Consider `COC1CCC12CCN(C(=O)c1ccc(Cc3c(C)n[nH]c3C)o1)CC2` (stereo not given), for which the RP-LC retention time was determined as 656 s.

As for `Cc1ccc(CC(=O)NC(CC(C)C)C(=O)Nc2nc3ccccc3[nH]2)cc1` (stereo not given), the RP-LC retention time worked out at 786 s.

Compound `COc1cccc(NC(=O)C2CCN(S(=O)(=O)c3ccc4c(c3)CCCN4C(C)=O)CC2)c1` gave an RP-LC retention time of 836 s.

`Cc1nnc(-c2nnc(N3CCC(C)CC3)c3ccccc23)o1` returned an RP-LC retention time of 824 s.

`CN1C(=O)c2cc(C(=O)NCCc3ccccc3)nn2CC1(C)C(=O)NC1CCCC1` (stereo not given) yielded an RP-LC retention time of 761 s.

Take `COc1ccc(OC)c(NC(=O)CN2C(=O)COc3ccc(C(=O)N4CCCC4)cc32)c1`: the RP-LC retention time amounted to 682 s.

For the compound `CC1CCc2nc(NC(=O)CSc3nnc(-c4ccccc4)o3)sc2C1` (stereo not given), the RP-LC retention time was 989 s.

For `O=C(NCc1ccco1)c1ccc2c(c1)N(Cc1ccccc1)C(=O)CO2`, the RP-LC retention time was found to be 942 s.

In the case of `Cc1ccc(-c2nn3c(N4CCN(c5ccccn5)CC4)cc(C)nc3c2C)cc1`, the RP-LC retention time is 613 s.

For `O=C(CC(=O)N1CCN(C2CCCCC2)CC1)Nc1ccc2nc3n(c(=O)c2c1)CCCCC3`, the RP-LC retention time was 554 s.

For the compound `CCC(=O)N1CCc2cc(-c3ccc(C(=O)N4CCN(C(=O)c5ccco5)CC4)cc3)ccc21`, the RP-LC retention time turned out to be 764 s.

Regarding `CC(C)c1cc(=O)n(CC(=O)Nc2cccc(-c3cn4c(n3)SCC4)c2)cn1`, the RP-LC retention time was found to be 568 s.

Take `Cc1cc(C)cc(C(=O)NC(C)C(=O)Nc2nc3ccccc3[nH]2)c1` (stereo not given): the RP-LC retention time turned out to be 688 s.

Take `Cc1sc(-c2nnc(C(C)C)o2)cc1NS(C)(=O)=O`: the RP-LC retention time was determined as 808 s.

The compound `CC(=O)Nc1ccc(C2(C(=O)NCc3ccc(F)c(Cl)c3)CCC2)cc1` displayed an RP-LC retention time of 795 s.

The compound `O=S(=O)(Cc1ccccc1)N1CCC(OC2CCN(Cc3cccnc3)CC2)CC1` yielded an RP-LC retention time of 615 s.

The compound `Cc1ccc(-c2nc(-c3ccnc(N4CCOCC4)c3)no2)cc1` returned an RP-LC retention time of 1050 s.

As to `O=C(NC1CC1)c1c2c(nc3ccccc13)CCC2`, the RP-LC retention time is 566 s.

`O=C(Nc1nc(C(=O)N2CCN(c3ncccn3)CC2)co1)c1ccccc1` returned an RP-LC retention time of 632 s.

In turn, `COCCN1C(=O)CCc2cc(NS(=O)(=O)c3cc(Cl)ccc3OC)ccc21` gave an RP-LC retention time of 803 s.

In turn, `CC1=C(c2ccc(C)cc2)S(=O)(=O)N=C1N1CCCN(C(=O)NC2CCCCC2)CC1` had an RP-LC retention time of 890 s.

The compound `CCOc1cccc(-c2noc(Cn3ccn(-c4ccccc4)c(=O)c3=O)n2)c1` registered an RP-LC retention time of 858 s.

Consider `Cc1sc(C)c(S(=O)(=O)NCc2ccc(F)cc2)c1-c1cc(C(F)(F)F)on1`, for which the RP-LC retention time is 1160 s.

The compound `ONC(=NCc1ccccc1)c1ccccc1` had an RP-LC retention time of 690 s.

`[O-]/[N+](=C\c1ccccc1)CC1(O)CCCCC1` had an RP-LC retention time of 798 s.

Compound `COc1ccccc1NC(=O)N1CCC(c2cc(N)on2)CC1` yielded an RP-LC retention time of 678 s.

In turn, `Cc1cc(=O)n(CC(=O)NCCn2nc(-c3ccc(F)cc3)ccc2=O)cn1` returned an RP-LC retention time of 603 s.

For the compound `CCS(=O)(=O)NCCc1csc(C)n1`, the RP-LC retention time was 572 s.

For the compound `O=C(NC1CCCCCC1)c1cccc(Cn2cncn2)c1`, the RP-LC retention time turned out to be 729 s.

In turn, `Nc1n[nH]c(-c2ccc(Cl)cc2)n1` displayed an RP-LC retention time of 605 s.

`COc1ccc(NC(=O)c2cc3c(=O)n(CC(C)C)c4ccccc4n3n2)cc1F` gave an RP-LC retention time of 1070 s.

`COCCN1C(=O)Cc2ccccc2C1C(=O)NCc1ccccc1F` (stereo not given) came in with an RP-LC retention time of 732 s.

Compound `COc1ccc(-c2csc(Nc3ccc(Br)cn3)n2)cc1OC` displayed an RP-LC retention time of 1100 s.

As to `O=C(NCc1csc(-c2cccs2)n1)C1CCN(S(=O)(=O)c2ccccc2)CC1`, the RP-LC retention time came to 870 s.

As to `OCC1CN(c2ncccn2)CC12CCN(Cc1ccc(Cl)cc1F)CC2` (stereo not given), the RP-LC retention time is 590 s.

In turn, `Cc1ccc(Nc2nc(C)cc(N3CCN(C(=O)Nc4cccc(C(F)(F)F)c4)CC3)n2)cc1` yielded an RP-LC retention time of 806 s.

Turning to `Oc1ccc(Nc2nc(-c3ccccc3)cs2)cc1`, the RP-LC retention time was determined as 818 s.

In the case of `CCCN1C(=O)c2c(C(=O)N3CCOCC3)ncn2CC1(C)C(=O)NCc1ccc(F)cc1` (stereo not given), the RP-LC retention time came to 618 s.

For `Cc1nc2cc(N3CC(C(=O)Nc4ccc(Cl)cc4F)CC3=O)ccc2o1` (stereo not given), the RP-LC retention time was 787 s.

As to `CC(C)(C)c1cc(Br)ccc1OCC(=O)Nc1ncn[nH]1`, the RP-LC retention time was 797 s.

On to `CN1C(=O)c2cc(C(=O)NCc3ccccc3Cl)nn2CC1(C)C(=O)NC1CCCCC1` (stereo not given), for which the RP-LC retention time came out at 839 s.

`CC(C)CN1C(=O)c2cccn2CC1C(=O)NCc1ccc2c(c1)OCO2` (stereo not given) showed an RP-LC retention time of 676 s.

Regarding `COc1ccc(-c2nnc(COc3cccc(NC(=O)C4CCC4)c3)o2)cc1`, the RP-LC retention time stood at 901 s.

Turning to `CSc1ccc(NC(=O)C2c3ccccc3Oc3ccccc32)nn1`, the RP-LC retention time was 907 s.

Consider `Cc1ccc(Sc2nccnc2N2CCCC(C(=O)N3CCN(c4ccc(C)cc4)CC3)C2)cc1` (stereo not given), for which the RP-LC retention time amounted to 1290 s.

For the compound `CCN1C(=O)COc2ccc(-c3noc(-c4ccccc4C)n3)cc21`, the RP-LC retention time worked out at 1230 s.

With `O=C(c1cc(-c2ccncc2)n[nH]1)N1CCC(C(=O)N2CCN(c3ccc(F)cc3)CC2)CC1`, the RP-LC retention time stood at 611 s.

Regarding `COc1ccc(C)cc1N1C(=O)CC(N2CCC(C(N)=O)CC2)C1=O` (stereo not given), the RP-LC retention time came out at 590 s.

`CCOC(=O)c1ccccc1NC(=O)c1nc(SC)ncc1Cl` registered an RP-LC retention time of 1240 s.

Regarding `O=C(c1cc(-c2cccnc2)n[nH]1)N1CCN(C(=O)C2CCCC2)CC1`, the RP-LC retention time was found to be 594 s.

Compound `Cc1cc2nn(CC(=O)N(C)c3ccccc3)c(=O)n2c(Nc2ccccc2C)n1` returned an RP-LC retention time of 922 s.

`COC[C@@H]1CN(Cc2c(C)noc2C)C[C@H]1c1ccccn1`: the RP-LC retention time was 580 s.

`CCCc1cc(N2CCN(C(=O)c3ccc4c(c3)OCO4)CC2)nc2nnc(CC)n12`: the RP-LC retention time was 650 s.

Turning to `Cc1ccc(Nc2c(-c3ccc(O)cc3)nc3cccc(C)n23)cc1`, the RP-LC retention time came out at 732 s.

`COCCCNC(=O)C1(C)Cn2nc(-c3ccccc3)cc2C(=O)N1Cc1cccc(OC)c1` (stereo not given) returned an RP-LC retention time of 887 s.

With `COC(=O)c1ccc(NC(=O)C(=O)NCC(O)c2sccc2C)cc1` (stereo not given), the RP-LC retention time came out at 707 s.

In turn, `O=C(N1CCC(c2nc(C3CCOCC3)no2)CC1)C1(c2ccccc2)CC1` showed an RP-LC retention time of 817 s.

In turn, `CCOc1ccccc1NC(=O)Cn1ncc2c(c1=O)N(C1CC1)C(=O)CS2` came in with an RP-LC retention time of 775 s.

In the case of `CCOC(=O)c1c(C)oc2nc(C)nc(NCCc3ccc(C)cc3)c12`, the RP-LC retention time stood at 1330 s.

The values above are taken from the METLIN SMRT retention time set (Domingo-Almenara et al. 2019).
